Experimental data: article PMC10817917, “Alkyl deoxyglycoside-polymyxin combinations against critical priority carbapenem-resistant gram-negative bacteria” (Scientific Reports, 2024)
Read-outs that look alike come from different tables or passages of the source.

Assays:
K. pneumoniae CQ4921 = experiment: Broth microdilution MIC/MBC, glycosides with or without polymyxins; assay type: cell-based, Klebsiella pneumoniae; settings: for MIC: Klebsiella pneumoniae, CQ4921
A. baumannii CQ4322 = experiment: as above; assay type: cell-based, Acinetobacter baumannii; settings: for MIC: Acinetobacter baumannii, CQ4322
K. pneumoniae CQ1947 = experiment: Broth microdilution MIC, glycosides with or without polymyxins; assay type: cell-based, Klebsiella pneumoniae; settings: for MIC: Klebsiella pneumoniae, CQ1947
E. cloacae CQ1941 = experiment: Broth microdilution MIC/MBC, glycosides with or without polymyxins; assay type: cell-based; settings: for MIC: Enterobacter cloacae, CQ1941
[1] = alone, read-out: MICA (MIC of each compound individually)
[2] = combination with the lowest FICI
[3] = compound + colistin, lowest FICI

CCCCCCCCCCCCO[C@H]1O[C@H](C)C[C@H](O)[C@H]1O [Compound 1, dodecyl 4,6-dideoxy-α/β-D-xylo-hexopyranoside]
MIC of colistin in combination with the compound (K. pneumoniae CQ4921; Cpd conc. 12.5 μg/mL, strain C): 0.25 µg/mL
MIC of colistin in combination with the compound (K. pneumoniae CQ4921; Cpd conc. […], strain C): 0.5 µg/mL
MIC (K. pneumoniae CQ4921; agent alone, no adjuvant (polymyxin conc. 0), strain C, read-out: MIC): > 100 µg/mL
MIC (K. pneumoniae CQ4921; [1]): > 100 µg/mL
MIC of compound in combination with PMB (K. pneumoniae CQ4921; PMB 0.25 μg/mL, strain C): > 100 µg/mL
MIC of compound in combination with PMB (K. pneumoniae CQ4921; PMB 0.5 μg/mL, strain C): 1.6 µg/mL
MIC of compound in combination with colistin (K. pneumoniae CQ4921; colistin 0.06 μg/mL, strain C): > 100 µg/mL
MIC of compound in combination with colistin (K. pneumoniae CQ4921; colistin 0.125 μg/mL, strain C): > 100 µg/mL
MIC of compound in combination with colistin (K. pneumoniae CQ4921; colistin 0.25 μg/mL, strain C): 3.1 µg/mL
MIC of compound in combination with colistin (K. pneumoniae CQ4921; colistin 0.5 μg/mL, strain C): 1.6 µg/mL
MICA(A + B) (MIC of compound in combination with colistin) (K. pneumoniae CQ4921; [2]): 3.125 µg/mL
MICB(A + B) (MIC of colistin in combination with compound) (K. pneumoniae CQ4921; [2]): 0.25 µg/mL
Interpretation (of FICI) (K. pneumoniae CQ4921; compound + colistin): Additive (from 0.5 to 1.0 were additive)
FICI (K. pneumoniae CQ4921; [3]): 0.52
MIC (A. baumannii CQ4322; agent alone, no adjuvant (polymyxin conc. 0), strain G, read-out: MIC): > 100 µg/mL
MIC (A. baumannii CQ4322; [1]): > 100 µg/mL
MIC of colistin in combination with the compound (A. baumannii CQ4322; Cpd conc. 0.4 μg/mL, strain G): > 0.5 µg/mL
MIC of colistin in combination with the compound (A. baumannii CQ4322; Cpd conc. 0.8 μg/mL, strain G): > 0.5 µg/mL
MIC of colistin in combination with the compound (A. baumannii CQ4322; Cpd conc. 3.125 μg/mL, strain G): 0.25 µg/mL
MIC of colistin in combination with the compound (A. baumannii CQ4322; Cpd conc. 6.25 μg/mL, strain G): 0.25 µg/mL
MIC of colistin in combination with the compound (A. baumannii CQ4322; Cpd conc. 12.5 μg/mL, strain G): 0.25 µg/mL
MIC of colistin in combination with the compound (A. baumannii CQ4322; Cpd conc. […], strain G): 0.5 µg/mL
MIC of compound in combination with PMB (A. baumannii CQ4322; PMB 0.25 μg/mL, strain G): > 100 µg/mL
MIC of compound in combination with PMB (A. baumannii CQ4322; PMB 0.5 μg/mL, strain G): 3.1 µg/mL
MIC of compound in combination with colistin (A. baumannii CQ4322; colistin 0.06 μg/mL, strain G): > 100 µg/mL
MIC of compound in combination with colistin (A. baumannii CQ4322; colistin 0.125 μg/mL, strain G): > 100 µg/mL
MIC of compound in combination with colistin (A. baumannii CQ4322; colistin 0.25 μg/mL, strain G): 3.1 µg/mL
MIC of compound in combination with colistin (A. baumannii CQ4322; colistin 0.5 μg/mL, strain G): 1.6 µg/mL
MICA(A + B) (MIC of compound in combination with colistin) (A. baumannii CQ4322; [2]): 3.125 µg/mL
MICB(A + B) (MIC of colistin in combination with compound) (A. baumannii CQ4322; [2]): 0.25 µg/mL
Interpretation (of FICI) (A. baumannii CQ4322; compound + colistin): Additive (from 0.5 to 1.0 were additive)
FICI (A. baumannii CQ4322; [3]): 0.52
MIC of colistin in combination with the compound (K. pneumoniae CQ1947; Cpd conc. 0.4 μg/mL, strain F): > 0.5 µg/mL
MIC of colistin in combination with the compound (K. pneumoniae CQ1947; Cpd conc. 0.8 μg/mL, strain F): > 0.5 µg/mL
MIC of colistin in combination with the compound (K. pneumoniae CQ1947; Cpd conc. 3.125 μg/mL, strain F): 0.5 µg/mL
MIC of colistin in combination with the compound (K. pneumoniae CQ1947; Cpd conc. 6.25 μg/mL, strain F): 0.5 µg/mL
MIC of colistin in combination with the compound (K. pneumoniae CQ1947; Cpd conc. 12.5 μg/mL, strain F): 0.5 µg/mL
MIC of colistin in combination with the compound (K. pneumoniae CQ1947; Cpd conc. […], strain F): > 0.5 µg/mL
MIC (K. pneumoniae CQ1947; agent alone, no adjuvant (polymyxin conc. 0), strain F, read-out: MIC): > 100 µg/mL
MIC (K. pneumoniae CQ1947; [1]): > 100 µg/mL
MIC of compound in combination with PMB (K. pneumoniae CQ1947; PMB 0.25 μg/mL, strain F): > 100 µg/mL
MIC of compound in combination with PMB (K. pneumoniae CQ1947; PMB 0.5 μg/mL, strain F): 3.1 µg/mL
MIC of compound in combination with colistin (K. pneumoniae CQ1947; colistin 0.06 μg/mL, strain F): > 100 µg/mL
MIC of compound in combination with colistin (K. pneumoniae CQ1947; colistin 0.125 μg/mL, strain F): > 100 µg/mL
MIC of compound in combination with colistin (K. pneumoniae CQ1947; colistin 0.25 μg/mL, strain F): > 100 µg/mL
MIC of compound in combination with colistin (K. pneumoniae CQ1947; colistin 0.5 μg/mL, strain F): 3.1 µg/mL
MICA(A + B) (MIC of compound in combination with colistin) (K. pneumoniae CQ1947; [2]): 3.125 µg/mL
MICB(A + B) (MIC of colistin in combination with compound) (K. pneumoniae CQ1947; [2]): 0.5 µg/mL
Interpretation (of FICI) (K. pneumoniae CQ1947; compound + colistin): Indifferent (1.0 to 4.0 were indifferent)
FICI (K. pneumoniae CQ1947; [3]): 1.016
MIC of colistin in combination with the compound (E. cloacae CQ1941; Cpd conc. 0.4 μg/mL, strain D): > 0.5 µg/mL
MIC of colistin in combination with the compound (E. cloacae CQ1941; Cpd conc. 0.8 μg/mL, strain D): 0.5 µg/mL
MIC of colistin in combination with the compound (E. cloacae CQ1941; Cpd conc. 3.125 μg/mL, strain D): 0.25 µg/mL
MIC of colistin in combination with the compound (E. cloacae CQ1941; Cpd conc. 6.25 μg/mL, strain D): 0.25 µg/mL
MIC of colistin in combination with the compound (E. cloacae CQ1941; Cpd conc. 12.5 μg/mL, strain D): 0.25 µg/mL
MIC of colistin in combination with the compound (E. cloacae CQ1941; Cpd conc. […], strain D): 0.25 µg/mL
MIC (E. cloacae CQ1941; agent alone, no adjuvant (polymyxin conc. 0), strain D, read-out: MIC): > 100 µg/mL
MIC (E. cloacae CQ1941; [1]): > 100 µg/mL
MIC of compound in combination with PMB (E. cloacae CQ1941; PMB 0.25 μg/mL, strain D): > 100 µg/mL
MIC of compound in combination with PMB (E. cloacae CQ1941; PMB 0.5 μg/mL, strain D): 1.6 µg/mL
MIC of compound in combination with colistin (E. cloacae CQ1941; colistin 0.06 μg/mL, strain D): > 100 µg/mL
MIC of compound in combination with colistin (E. cloacae CQ1941; colistin 0.125 μg/mL, strain D): > 100 µg/mL
MIC of compound in combination with colistin (E. cloacae CQ1941; colistin 0.25 μg/mL, strain D): 1.6 µg/mL
MIC of compound in combination with colistin (E. cloacae CQ1941; colistin 0.5 μg/mL, strain D): 0.8 µg/mL
MICB(A + B) (MIC of colistin in combination with compound) (E. cloacae CQ1941; [2]): 0.25 µg/mL
Interpretation (of FICI) (E. cloacae CQ1941; compound + colistin): Additive (from 0.5 to 1.0 were additive)
FICI (E. cloacae CQ1941; [3]): 0.52
